Reference: patent publication US20230286973A1, “PROTEIN SECRETION INHIBITORS” (KEZAR LIFE SCIENCES, priority 2020, published 2023)
Several values for one entry are separate records, joined by “and”; a condition that tells them apart may be missing. Equal entries are not always repeated.

Columns and labels:
[1] = tested on: multiple myeloma cell line U266B1; test: U266 Cell Viability Assay; assay type: cell-based, human; settings: Homo sapiens, U-266, 48 h, U266B1 cells, Celltiter-Glo
How it was run: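 Cells grown in RPMI 1640 with 10% FBS, 2 mM glutamine and penicillin/streptomycin were exposed to compound dilutions in DMSO/media for 48 hours at 37° C., 5% CO2. Viability was read by CellTiter-Glo luminescence. Undefined stereocentres mean data for stereoisomer mixtures.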

[2] = Liver Microsome Stability Assay (rat); settings: rat liver microsomes, with NADPH, 1.0 uM compound
Procedure: (§1) Stability of a compound was assessed in the presence of liver microsomes from various sources—mouse, rat, monkey and human liver microsomes. 1.0 uM compound, 0.4% DMSO in 0.1 M Potassium Phosphate with 1.0 mg/mL liver microsomes, were incubated at 37° C. with or without 1 mM NADPH. The samples were quenched at 0, and 30 minutes.

[3] = Liver Microsome Stability Assay (mouse); settings: mouse liver microsomes, with NADPH, 1.0 uM compound
Procedure: as §1

[4] = tested on: IL-2-FL/Gaussia Luciferase; test: Dox Induced IL2-FL-Gluc Assay; assay type: cell-based; settings: for IC50: 24 hr Dox induction, 293FRT/TO cells, read-out: 24 hr Dox Inducible IL2FLGluc 293FRT/TO: Mean IC50; for 24 hr Dox Inducible IL2FLGluc 293FRT/TO: IL2/PD1: ratio of IL2FLGluc IC50 to PD1ssGluc IC50
How it was run: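 Flp-In 293 T-REx cells stably carrying doxycycline-inducible full-length IL-2 (aa 1-153) fused at its C-terminus to Gaussia luciferase, selected with hygromycin and blasticidin. Cells were plated the day before, then treated with compounds in DMSO/media containing doxycycline at 37° C, 5% CO2.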

[5] = tested on: HER3-ss+4aa/Gaussia Luciferase; test: Dox-Induced Her3-ss-Gluc Assay; assay type: cell-based; settings: 24 hr Dox induction; 293FRT/TO cells; read-out: 24 hr Dox Inducible Her3(ss + 4)Gluc 293FRT/TO: Mean IC50
How it was run: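 Stable Flp-In 293 T-REx line expressing Gaussia luciferase fused to the HER3 signal sequence plus 4 amino acids under tetracycline-regulated (T-REx) control. Cells plated the day before, then treated with compound dilutions in DMSO/media containing doxycycline and incubated at 37° C., 5% CO2.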

[6] = Liver Microsome Stability Assay (human); settings: human liver microsomes, with NADPH, 1.0 uM compound
Procedure: as §1

[7] = tested on: multiple myeloma cell line NCI-H929; test: H929 Cell Viability Assay; assay type: cell-based, human; settings: Homo sapiens, NCI-H929, 48 h, NCI-H929 cells, Celltiter-Glo
How it was run: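 NCI-H929 cells, resuspended in RPMI 1640 with 10% FBS and 2 mM glutamine, were treated with compound dilutions in DMSO/media and incubated 48 hours at 37° C, 5% CO2. Viability was read by CellTiter-Glo luminescence. Compounds drawn without stereochemistry were tested as stereoisomer mixtures.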

[8] = tested on: PD1-ss+10aa/Gaussia Luciferase; test: Dox-Induced PD1-ss-Gluc Assay; assay type: cell-based; settings: 24 hr Dox induction; 293FRT/TO cells; read-out: 24 hr Dox Inducible PD1ssGluc 293FRT/TO: Mean IC50
How it was run: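 The cell line was made by transfecting Flp-In 293 T-REx cells with a PD1 signal sequence+10aa–Gaussia luciferase fusion under T-REx control and selecting with hygromycin and blasticidin. Cells were seeded, and next day compound plus doxycycline was added at 37 °C, 5% CO2.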

[9] = tested on: TNFα-FL/Gaussia Luciferase; test: Dox Induced TNFα-FL-Gluc Assay; assay type: cell-based; settings: for IC50: 24 hr Dox induction, 293FRT/TO cells, read-out: 24 hr Dox Inducible TNFaFLGluc 293FRT/TO: Mean IC50; for 24 hr Dox Inducible TNFaFLGluc 293FRT/TO: TNF/PD1: ratio of TNFaFLGluc IC50 to PD1ssGluc IC50
How it was run: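 Flp-In 293 T-REx cells stably expressing full-length TNFα (aa 1-233) fused at its C-terminus to Gaussia luciferase under tetracycline-regulated control were plated the day before assay. Compound dilutions in DMSO/media containing doxycycline were added and incubated at 37 °C, 5% CO2. Unspecified stereochemistry denotes stereoisomer mixtures.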

[10] = Liver Microsome Stability Assay (monkey); settings: monkey liver microsomes, with NADPH, 1.0 uM compound
Procedure: as §1

| SMILES | EC50 [1] | Liver Microsome Stability (Multiple Species): Rat - % Remaining after 30 min w/NADPH [2] | Liver Microsome Stability (Multiple Species): Mouse - % Remaining after 30 min w/NADPH [3] | IC50 [4] | 24 hr Dox Inducible IL2FLGluc 293FRT/TO: IL2/PD1 [4] | IC50 [5] | Liver Microsome Stability (Multiple Species): Human - % Remaining after 30 min w/NADPH [6] | EC50 [7] | IC50 [8] | IC50 [9] | 24 hr Dox Inducible TNFaFLGluc 293FRT/TO: TNF/PD1 [9] | Liver Microsome Stability (Multiple Species): Monkey - % Remaining after 30 min w/NADPH [10] |
| --- | --- | --- | --- | --- | --- | --- | --- | --- | --- | --- | --- | --- |
| Cc1cccc2nc(/C=C/c3csc(NC(=O)c4cccn4Cc4ccncc4)n3)cn12 [Compound B77, (E)-N-(4-(2-(5-methylimidazo[1,2-a]pyridin-2-yl)vinyl)thiazol-2-yl)-1-(pyridin-4-ylmethyl)-1H-pyrrole-2-carboxamide] | > 25 µM | 1.67% | 2.21% | > 25 µM | >51 | 11.5 µM | 1.11% | > 25 µM | 0.491 µM | > 25 µM | >50.9 | 0.59% |
| CC(C)c1c(/C=C/c2csc(NC(=O)c3cccn3Cc3ccnc(F)c3)n2)ncn1C [Compound B81, (E)-1-((2-fluoropyridin-4-yl)methyl)-N-(4-(2-(5-isopropyl-1-methyl-1H-imidazol-4-yl)vinyl)thiazol-2-yl)-1H-pyrrole-2-carboxamide] | > 25 µM | 9.66% | 11.7% | > 25 µM | >110 | 15.6 µM | 0.58% | 16.9 µM | 0.228 µM | > 25 µM | >109 | 0.06% |
| Cc1cn(C(C)C)nc1/C=C/c1csc(NC(=O)c2cccn2Cc2ccnc(F)c2)n1 [Compound B83, (E)-1-((2-fluoropyridin-4-yl)methyl)-N-(4-(2-(1-isopropyl-4-methyl-1H-pyrazol-3-yl)vinyl)thiazol-2-yl)-1H-pyrrole-2-carboxamide] | 15.3 µM | 6.87% and 5.01% | 11.1% and 10.1% | 3.23 µM | 10 | 1.96 µM | 2.94% and 2.65% | 11.3 µM | 0.32 µM | 11.7 µM | 36.6 | 0.25% and 0.24% |
| CC(C)c1c(/C=C/c2csc(NC(=O)c3cccn3Cc3ccncc3)n2)ncn1C [Compound B85, (E)-N-(4-(2-(5-isopropyl-1-methyl-1H-imidazol-4-yl)vinyl)thiazol-2-yl)-1-(pyridin-4-ylmethyl)-1H-pyrrole-2-carboxamide] | > 25 µM | 2.02% | 0.8% | > 25 µM | >76 | > 25 µM | 1.26% | > 25 µM | 0.329 µM | > 25 µM | >75.9 | 0.13% |
| O=C(Nc1nc(/C=C/c2ncn3c2CCCC3)cs1)c1cccn1Cc1ccnc(F)c1 [Compound B86, (E)-1-((2-fluoropyridin-4-yl)methyl)-N-(4-(2-(5,6,7,8-tetrahydroimidazo[1,5-a]pyridin-1-yl)vinyl)thiazol-2-yl)-1H-pyrrole-2-carboxamide] | 16.7 µM | 17% | 12.5% | > 25 µM | >240 | 23.2 µM | 0.27% | 16.5 µM | 0.104 µM | > 25 µM | >239 | 0.11% |
| CC(C)c1ccc(/C=C/c2csc(NC(=O)c3cccn3Cc3cc(F)nc(F)c3)n2)nc1 [Compound B87, (E)-1-((2,6-difluoropyridin-4-yl)methyl)-N-(4-(2-(5-isopropylpyridin-2-yl)vinyl)thiazol-2-yl)-1H-pyrrole-2-carboxamide] | 14.1 µM | 0.18% | 1.23% | > 25 µM | >190 | > 25 µM | 0.15% | 9.92 µM | 0.132 µM | > 25 µM | >189 | 0.04% |
| Cc1cc(/C=C/c2csc(NC(=O)c3cccn3Cc3ccnc(F)c3)n2)no1 [Compound B88, (E)-1-((2-fluoropyridin-4-yl)methyl)-N-(4-(2-(5-methylisoxazol-3-yl)vinyl)thiazol-2-yl)-1H-pyrrole-2-carboxamide] | > 25 µM | 2.29% | 3.15% | > 25 µM | >40 | > 25 µM | 15.6% | > 25 µM | 0.625 µM | > 25 µM | >40.0 | 15.2% |
| CCc1cc(/C=C/c2csc(NC(=O)c3cccn3Cc3ccnc(F)c3)n2)no1 [Compound B89, (E)-N-(4-(2-(5-ethylisoxazol-3-yl)vinyl)thiazol-2-yl)-1-((2-fluoropyridin-4-yl)methyl)-1H-pyrrole-2-carboxamide] | > 25 µM | 1.11% | 2.24% | 1.65 µM | 6.1 | 1.1 µM | 0.4% | > 25 µM | 0.271 µM | > 25 µM | >92.2 | 0.17% |
| CC(C)c1cc(/C=C/c2csc(NC(=O)c3cccn3Cc3ccnc(F)c3)n2)no1 [Compound B90, (E)-1-((2-fluoropyridin-4-yl)methyl)-N-(4-(2-(5-isopropylisoxazol-3-yl)vinyl)thiazol-2-yl)-1H-pyrrole-2-carboxamide] | > 25 µM | 5.78% | 10.8% | 1.17 µM | 7 | 0.69 µM | 0.87% | 22.8 µM | 0.167 µM | > 25 µM | >150 | 0.54% |
